From US20200354411A1, “Chimeric Molecule for Targeting c-Myc in Cells” (priority 2017, published 2020)
“Also recorded” adds a separate entry of the source. Where two headings read alike, the source gives them in different places.

Assays:
[1] = system: c-Myc; assay: E-Box luciferase reporter, c-Myc transcriptional activity in A431 cells; assay type: cell-based; details: for EC50: A431 cells expressing luciferase upon E-Box promoter
Description: (§1) All cell lines come from ATCC. Lentiviruses were generated according to the manufacturer's instructions (Invitrogen). WT A431 cells were transduced with Cignal Lenti Myc Reporter (Qiagen) expressing Luciferase upon E-Box promoter and CMV-Renilla Control CLS-RCL expressing Renilla upon CMV promoter. Single clone was selected after colony isolation and Luciferase/Renilla expression level tested. All cell lines (A431 and HepG2) were maintained in high-glucose Dulbecco's modified Eagle's medium supplemented with 10% foetal calf serum at 37° C. in a 10% CO2 incubator. All experiments were performed on cells passaged fewer than 10 times after thawing.
40,000 A431-Ebox-luc-CMV-Ren cells were seeded in a 96-well plate (Falcon) 48 hours. Luminescence is detected using the Promega Dual-Glo luciferase assay system, according to the manufacturer's protocol and read using Tecan Infinite M200 microplate reader using 100 ms integration time. […]

[2] = system: Hepatocarcinoma HepG2 cells; assay: HepG2 cell proliferation (IncuCyte live imaging); assay type: cell-based; details: for concentration above which no proliferation / absence of cell growth: HepG2, 2 weeks
Description: (§2) Cells were seeded at 10 to 20% confluency. 24 hours later, the cells were incubated with different doses of tPE-H1 at 37° C., 10% CO2 for 14 days. Live imaging was performed using IncuCyte ZOOM® Live-Cell Analysis System. Bright field Images were taken every 6 hours. Images were analysed using IncuCyte ZOOM® Live-Cell Analysis software.
(§3) It is of note that the experiments outlined above were also performed using the tPE-Omomcy fusion protein, results of which are shown in FIG. 2B, and FIGS. 12 to 15. The concentration of the tPE-Omomyc fusion protein is as stated on the x-axis in FIGS. 12 and 14; 200 nM for FIG. 2B; and 10 nM for FIGS. 13 and 15.

[3] = system: Hepatocarcinoma HepG2 cells; assay: DRAQ7 cell mortality assay; assay type: cell-based; details: 24 hours
Description: 25000 HepG2 cells were seeded per well in a 96-well plate. After incubation at 37° C. for 24 hours, DRAQ7 dye was prepared with 100 nM tPE-H1 at 500 times dilution
Cell mortality was tracked by acquiring nine fields of brightfield and far-red images at 20× magnification every 4 hours using the Operetta machine (Perkin-Elmer) for 3 to 5 days. The machine kept the plate incubated at 37° C. with 8% CO2.
as §3

[4] = system: HeLa, A431, MG63, MDA-MD231, and HCT116; assay: Sensitivity of other cell lines (data not shown); assay type: cell-based
[5] = system: A431 cells; assay: Cell fractionation, subcellular location; assay type: cell-based; details: for subcellular location after cell fractionation: 200 nM, 1 hour, A431; for time to reach the nucleus: after incubation
Description: Cells were seeded at the desired densities in six-well dishes (Thermo Fisher Scientific) and incubated at 37° C., 10% CO2 for 16 hours. Cells were treated for 1 hour with mock (untreated cells) or tPE-H1 200 nM before fractionation with Cell Surface Protein Isolation Kit (#89881, Thermo Fisher Scientific) according to the manufacturer's protocol. In addition, cytosolic fraction is centrifuge at 15 000 g for 15 minutes to remove membrane contaminants. Samples are denaturated in Laemmli blue 2X and heat-denaturated for 5 minutes at 95° C. Samples are loaded on SDS-PAGE followed by western blot.
as §3

[6] = system: c-Myc regulated genes; assay: RT-PCRQ of c-Myc regulated transcripts; assay type: cell-based, human; details: A431, 100 nM overnight (16 hours)
Description: 400000 A431 cells were seeded in each well in a 6 well plate (Falcon) 24 hours before incubation with 100 nM tPE-H1 for 16 hours at 37° C. Total RNA was isolated using the RNeasy Mini Kit (Qiagen, Ref. no 74106) as described by manufacturer's protocol.
10 μg total RNA was reversed transcribed using SuperScript III First-Strand Synthesis System for RT-PCR (Invitrogen, Cat. no. 18080051) as described by manufacturer's protocol.
The relative expression of mRNAs of c-Myc regulated genes identified in RT^2 Profiler™ PCR Array Human MYC Targets (Qiagen, Cat. no. PAHS-177Z) was determined by real-time quantitative RT-PCR. Briefly, a PCR component mix containing cDNA, RT^2 SYBR Green Mastermix (Qiagen, Cat. no. 330523) and RNase-free water is prepared. 25 μl of the PCR reaction was added to each well in one array plate and subjected to a qPCR program using the ABI 7500. PCR cycling conditions comprised of an initial denaturation step at 95° C. for 10 minutes followed by an amplification program for 40 cycles of 15 seconds at 95° C., and 60 seconds at 60° C. with fluorescence acquisition at the end of each extension. The relative expression of each gene between treated and untreated samples is calculated using the comparative ΔΔCT method, using the mock treated sample as calibrator and housekeeping gene HPRT as internal control.

[7] = system: Renilla upon CMV promoter; assay: CMV-Renilla control reporter in A431 cells; assay type: cell-based; details: 50 nM, 6 hours
Description: as §1
40,000 A431-Ebox-luc-CMV-Ren cells were seeded in a 96-well plate (Falcon) 48 hours. Luminescence is detected using the Promega Dual-Glo luciferase assay system, according to the manufacturer's protocol and read using Tecan Infinite M200 microplate reader using 100 ms integration time.

[8] = system: A431 cells; assay: A431 cell proliferation (IncuCyte live imaging); assay type: cell-based
Description: as §2

[9] = target: T1, c-Myc/Max complex (Homo sapiens, UniProt P01106); assay: c-Myc co-immunoprecipitation with Max; assay type: cell-based; details: 200 nM, 1 hour, A431
T1 construct: endogenous in cells; host or cells: A431
T1 sequence (P01106 whole entry, one chain of several): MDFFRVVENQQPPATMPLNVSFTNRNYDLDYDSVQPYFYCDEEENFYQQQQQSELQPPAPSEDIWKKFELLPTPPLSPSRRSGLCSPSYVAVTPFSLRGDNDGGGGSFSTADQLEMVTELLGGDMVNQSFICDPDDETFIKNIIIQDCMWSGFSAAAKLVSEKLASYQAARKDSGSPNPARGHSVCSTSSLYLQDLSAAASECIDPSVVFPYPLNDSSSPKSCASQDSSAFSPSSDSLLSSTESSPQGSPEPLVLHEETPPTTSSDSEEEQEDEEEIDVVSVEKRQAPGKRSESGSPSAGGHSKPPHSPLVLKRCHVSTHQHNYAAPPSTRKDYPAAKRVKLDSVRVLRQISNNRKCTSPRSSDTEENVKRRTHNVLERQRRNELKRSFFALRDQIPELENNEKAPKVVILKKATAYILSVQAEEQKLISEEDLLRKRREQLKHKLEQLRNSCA
Description: A431 cells seeded at the desired densities in six-well dishes (Thermo Fisher Scientific) and incubated at 37° C., 10% CO2 for 16 hours. Cells were treated for 1 hour with mock, tPE or tPE-H1 200 nM before lysis in RIPA buffer for 20 minutes at 4° C. and centrifugation for 20 minutes at 15 000 g at 4° C. Soluble fractions were added with c-myc antibody (#32, Abcam) on orbital wheel for 4 hours at 4° C. Protein A Sepharose (GE Healthcare) was added and incubated overnight on orbital wheel at 4° C. After three washes, proteins were eluted in one volume of Laemmli blue 2X and heat-denaturated for 5 minutes at 95° C. Samples were run on SDS-PAGE before western blot. Membrane are blocked in milk and incubated with anti Max (#199489, Abcam) and anti c-Myc (#32072, Abcam).

[10] = 6 hours, read-out: EC50 on c-Myc transcriptional activity, CPP fused to H1
[11] = 6 hours, read-out: EC50 on c-Myc transcriptional activity (c-Myc-dependent luciferase activity)
[12] = tPE-Omomyc 10 nM, A431 E-Box luciferase
[13] = tPE-H1 50 nM, A431 E-Box luciferase

Substance: cell targeting peptide Cadherin fused to H1: LLIILLRRRIRKQAHAHSK NELKRAFAALRDQI [CAD-H1, reference compound]
- EC50 ([1]; 6 hours, listed as Cadherin, read-out: EC50 on c-Myc transcriptional activity, CPP fused to H1): 75 µM
- EC50 [1, 10]: ~75 µM

Substance: cell targeting peptide Antenapedia fused to H1: RQIKIWFQNRRMKWKK NELKRAFAALRDQI [Int-H1, reference compound]
- EC50 ([1]; 6 hours, listed as Antenapedia, read-out: EC50 on c-Myc transcriptional activity, CPP fused to H1): 200 µM
- EC50 ([1]; 6 hours, listed as int-H1, read-out: EC50 on c-Myc transcriptional activity, CPP fused to H1): ~200 µM

Substance: cell targeting peptide TAT fused to H1: GRKKRRQRRRPPQ NELKRAFAALRDQI [Tat-H1, reference compound]
- EC50 ([1]; 6 hours, listed as TAT, read-out: EC50 on c-Myc transcriptional activity, CPP fused to H1): 500 µM
- EC50 [1, 10]: ~500 µM

Substance: tPE-Omomyc: fusion protein: PE domains Ia and II genetically fused to Omomyc peptide, SEQ ID NO: 15
- concentration sufficient to block HepG2 cell proliferation and induce cell death/apoptosis [2]: 10 nM
- cell proliferation ([2]; HepG2, 2.5 nM and 5 nM, 2 weeks): slower cell proliferation
- cell proliferation, different doses ([2]; HepG2, 1 to 10 nM): decrease in cell proliferation
- concentration above which no proliferation / absence of cell growth [2]: above 10 nM
- EC50 [1, 11]: 0.005 µM
- time of peak activity / maximal inhibition of luciferase [1, 12]: 16 h
- time over which maximal inhibition is stable [1, 12]: more than 24 hours
- number of dead (DRAQ7 positive) cells ([3]; HepG2, 10 nM): significant increase; also recorded: increase of the number of dead cells
- concentration to which cell lines were sensitive ([4]; HeLa, A431, MG63, MDA-MD231, HCT116, data not shown): about 10 nM
- subcellular location after cell fractionation [5]: located in nuclear fraction; also recorded: in the nuclear fraction
- time to reach the nucleus [5]: ≤ 1 h

Substance: tPE-H1: fusion protein: PE domains Ia and II genetically fused to mutated H1 peptide (S6A, F8A), SEQ ID NO: 14
- mRNA amount of transcripts regulated by c-Myc [6]: decrease of numerous upregulated genes under tPE-H1 treatment and an increase of numerous down regulated genes
- concentration sufficient to block HepG2 cell proliferation and induce cell death/apoptosis [2]: 100 nM
- cell proliferation ([2]; HepG2, 10 nM and 25 nM, over 2 weeks): slower cell proliferation
- concentration above which no proliferation / absence of cell growth [2]: above 50 nM
- effect on Renilla luciferase (CMV promoter control) [7]: not affected
- cell proliferation ([8]; A431, 50 nM and 100 nM, over 2 weeks): slower cell proliferation
- cell proliferation, dose response ([8]; A431, 50 to 400 nM): dose dependent decrease in cell proliferation
- concentration above which no proliferation / total absence of growth ([8]; A431, over 2 weeks): above 200 nM
- more efficient than H1 fused to cell penetrating peptides (TAT, CAD, int) [1]: at least 1000 times
- decrease in Myc reporter activity ([1]; 50 nM): > 90%
- effect on E-Box luciferase ([1]; 50 nM, 6 hours, A431): decrease of the luciferase
- EC50 [1, 11]: 0.025 µM
- time of peak activity / maximal inhibition of luciferase [1, 13]: 8 h
- time over which maximal inhibition was stable [1, 13]: more than 24 hours
- number of dead (DRAQ7 positive) cells ([3]; HepG2, 100 nM): cells death; also recorded: increase of the number of dead cells
- relative sensitivity of all cell lines tested, tPE-H1 versus tPE-Omomyc ([4]; all the cell lines tested): around 10 times
- effect on c-Myc/Max interaction (co-IP of Max with c-Myc) [9]: disrupted the c-Myc/Max interaction
- subcellular location after cell fractionation [5]: location in the nucleus
- time to reach the nucleus [5]: less than 1 hour
